PubChem BioAssay AID330 (DTP/NCI, 2004)
Where “and” joins values, the source holds several entries; their conditions need not be identical. Identical values can stand only once. Inconclusive results and toxic doses are left out. The calls were made as follows: active = survival T/C of 150% or more; inactive = T/C below 125% in these data.

Test system: P388 leukemia ip, CD2F1 mice, survival T/C
Assay: NCI In Vivo Anticancer Drug Screen. Data for tumor model P388 Leukemia (intraperitoneal) in CD2F1 (CDF1) mice
Conditions: endpoint: median survival time, higher = longer survival
Procedure, shortened: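 Mice carrying the transplanted tumor received test compound or vehicle. Survival was recorded in each group, and the value is the treated-group measurement divided by that of the vehicle-treated control group.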

[1] = dose: 50.0 mg/kg/injection, schedule: Q01DX005 (ip), vehicle: Klucel (hydroxypropylcellulose) (HPC)
[2] = dose: 100.0 mg/kg/injection, schedule: Q01DX005 (ip), vehicle: Klucel (hydroxypropylcellulose) (HPC)
[3] = dose: 200.0 mg/kg/injection, schedule: Q01DX005 (ip), vehicle: Klucel (hydroxypropylcellulose) (HPC)
[4] = dose: 60.0 mg/kg/injection, schedule: Q01DX005 (ip), vehicle: saline with Tween-80
[5] = dose: 120.0 mg/kg/injection, schedule: Q01DX005 (ip), vehicle: saline with Tween-80
[6] = dose: 240.0 mg/kg/injection, schedule: Q01DX005 (ip), vehicle: saline with Tween-80
[7] = dose: 50.0 mg/kg/injection, schedule: Q01DX005 (ip), vehicle: saline with Tween-80
[8] = dose: 100.0 mg/kg/injection, schedule: Q01DX005 (ip), vehicle: saline with Tween-80
[9] = dose: 200.0 mg/kg/injection, schedule: Q01DX005 (ip), vehicle: saline with Tween-80
[10] = dose: 50.0 mg/kg/injection, schedule: Q01DX005 (ip), vehicle: saline
[11] = dose: 50.0 mg/kg/injection, schedule: Q01DX009 (ip), vehicle: saline with Tween-80
[12] = dose: 100.0 mg/kg/injection, schedule: Q01DX009 (ip), vehicle: saline with Tween-80
[13] = dose: 200.0 mg/kg/injection, schedule: Q01DX009 (ip), vehicle: saline with Tween-80
[14] = dose: 60.0 mg/kg/injection, schedule: Q01DX005 (ip), vehicle: Klucel (hydroxypropylcellulose) (HPC)
[15] = dose: 120.0 mg/kg/injection, schedule: Q01DX005 (ip), vehicle: Klucel (hydroxypropylcellulose) (HPC)
[16] = dose: 240.0 mg/kg/injection, schedule: Q01DX005 (ip), vehicle: Klucel (hydroxypropylcellulose) (HPC)
[17] = dose: 400.0 mg/kg/injection, schedule: Q01DX009 (ip), vehicle: saline with Tween-80

Measured: T/C

CSC(=O)NC(=Nc1ccccc1)NC(=O)c1ccccc1
inactive: dose: 12.5 mg/kg/injection, schedule: Q01DX005 (ip), vehicle: Klucel (hydroxypropylcellulose) (HPC) 90 % of control | dose: 25.0 mg/kg/injection, schedule: Q01DX005 (ip), vehicle: Klucel (hydroxypropylcellulose) (HPC) 93 % of control | [1] 91 % of control | [2] 88 % of control | [3] 89 % of control and 91 % of control

CC1=C(/C=C/C(C)=C/C=C/C(C)=C/C=C/C=C(C)/C=C/C=C(\C)C=O)C(C)(C)CCC1
inactive: [4] 101 % of control | [5] 92 % of control | [6] 94 % of control

O=C1C(=O)C(CN2CCOCC2)=C(N2CCOCC2)C(N2CCOCC2)=C1CN1CCOCC1
inactive: dose: 25.0 mg/kg/injection, schedule: Q01DX005 (ip), vehicle: saline with Tween-80 100 % of control | [7] 100 % of control | [8] 98 % of control | [9] 100 % of control

CCOC(=O)C(CC)c1ccncc1C (configuration not stated)
inactive: dose: 25.0 mg/kg/injection, schedule: Q04DX002 (ip), vehicle: saline with Tween-80 106 % of control | dose: 50.0 mg/kg/injection, schedule: Q04DX002 (ip), vehicle: saline with Tween-80 114 % of control | dose: 100.0 mg/kg/injection, schedule: Q04DX002 (ip), vehicle: saline with Tween-80 118 % of control | dose: 200.0 mg/kg/injection, schedule: Q04DX002 (ip), vehicle: saline with Tween-80 110 % of control

CC(=O)OCC1OC2OC(C)(C)OC2C1O (configuration not stated)
inactive: [10] 96 % of control | dose: 100.0 mg/kg/injection, schedule: Q01DX005 (ip), vehicle: saline 100 % of control | dose: 200.0 mg/kg/injection, schedule: Q01DX005 (ip), vehicle: saline 105 % of control

CC(C)CC(NC(=O)c1cccnc1)C(=O)O (configuration not stated)
inactive: [1] 104 % of control | [2] 99 % of control | [3] 93 % of control

CCCCCCCCCCCCCCCCCCOC(=O)CCN
inactive: [7] 101 % of control | [8] 109 % of control | [9] 113 % of control

Cc1cc(NC(=O)Nc2ccc(F)cc2)no1
inactive: [4] 94 % of control | [5] 93 % of control | [6] 96 % of control

COC(=O)CCCCc1ccc(CCCC(=O)OC)c2ccccc12
inactive: dose: 50.0 mg/kg/injection, schedule: Q01DX009 (ip), vehicle: other 102 % of control | dose: 100.0 mg/kg/injection, schedule: Q01DX009 (ip), vehicle: other 102 % of control | dose: 200.0 mg/kg/injection, schedule: Q01DX009 (ip), vehicle: other 105 % of control

CCOC(=O)c1[nH]c(=S)n(-c2ccccc2)c1C(=O)OCC
inactive: dose: 6.25 mg/kg/injection, schedule: Q01DX009 (ip), vehicle: saline with Tween-80 101 % of control | dose: 12.5 mg/kg/injection, schedule: Q01DX009 (ip), vehicle: saline with Tween-80 110 % of control | dose: 25.0 mg/kg/injection, schedule: Q01DX009 (ip), vehicle: saline with Tween-80 111 % of control | [11] 101 % of control

CCCCCCCCOC(=O)Nc1ccc(OCC)cc1
inactive: dose: 0.75 mg/kg/injection, schedule: Q01DX009 (ip), vehicle: saline with Tween-80 92 % of control | dose: 1.5 mg/kg/injection, schedule: Q01DX009 (ip), vehicle: saline with Tween-80 97 % of control | dose: 3.0 mg/kg/injection, schedule: Q01DX009 (ip), vehicle: saline with Tween-80 104 % of control

CC1=CN2C3=NCCN3C3=[N+](C)CCN3C2C=C1 (configuration not stated)
inactive: dose: 12.5 mg/kg/injection, schedule: Q01DX005 (ip), vehicle: saline 104 % of control | dose: 25.0 mg/kg/injection, schedule: Q01DX005 (ip), vehicle: saline 101 % of control | [10] 100 % of control and 112 % of control

CC(=O)c1ccc(N=NN(C)c2ccc(C(C)=O)cc2)cc1
inactive: [11] 108 % of control | [12] 107 % of control | [13] 101 % of control

O=c1c2cc(F)ccc2nnn1-c1ccccc1
inactive: dose: 12.5 mg/kg/injection, schedule: Q01DX009 (ip), vehicle: suspension in saline 88 % of control | dose: 25.0 mg/kg/injection, schedule: Q01DX009 (ip), vehicle: suspension in saline 98 % of control | dose: 50.0 mg/kg/injection, schedule: Q01DX009 (ip), vehicle: saline 86 % of control | dose: 50.0 mg/kg/injection, schedule: Q01DX009 (ip), vehicle: suspension in saline 107 % of control | dose: 200.0 mg/kg/injection, schedule: Q01DX009 (ip), vehicle: saline 90 % of control

O=c1c2ccccc2sc2cccc(NCCN3CCC(C4CCN(CCNc5cccc6sc7ccccc7c(=O)c56)CC4)CC3)c12
inactive: dose: 6.25 mg/kg/injection, schedule: Q01DX005 (ip), vehicle: saline with Tween-80 105 % of control | dose: 12.5 mg/kg/injection, schedule: Q01DX005 (ip), vehicle: saline with Tween-80 90 % of control | [7] 96 % of control | [8] 92 % of control

CNC1NC(=O)c2ccccc2N1Cc1ccc(F)cc1 (configuration not stated)
inactive: [14] 94 % of control | [15] 92 % of control | [16] 94 % of control

S=C(S)NCCCn1ccnc1
inactive: [7] 117 % of control | [8] 109 % of control | [9] 110 % of control

Nc1c(CNCc2nnn(Cc3ccccc3)c2N)nnn1Cc1ccccc1
inactive: [11] 96 % of control | [12] 93 % of control | [13] 93 % of control

O=C(NC(Cc1c[nH]c2ccccc12)C(=O)O)C(=O)c1c[nH]c2ccccc12 (configuration not stated)
inactive: [4] 100 % of control | [5] 97 % of control | [6] 90 % of control

Cc1cc(=O)oc2nc(-c3ccccc3)[nH]c(=O)c12
inactive: [14] 86 % of control | [15] 100 % of control | [16] 91 % of control

O=C1NC(=O)C(Cc2ccccc2)(Cc2ccccc2)C(=O)N1
inactive: [12] 90 % of control | dose: 100.0 mg/kg/injection, schedule: Q04DX003 (ip), vehicle: saline with Tween-80 110 % of control | [13] 95 % of control | dose: 200.0 mg/kg/injection, schedule: Q04DX003 (ip), vehicle: saline with Tween-80 100 % of control | [17] 95 % of control | dose: 400.0 mg/kg/injection, schedule: Q04DX003 (ip), vehicle: saline with Tween-80 110 % of control

Nc1nc(N)c2cc([N+](=O)[O-])ccc2n1
inactive: [4] 93 % of control | [5] 94 % of control | [6] 96 % of control

CN(C)CCCOC1=Nc2ccccc2O/C1=C/c1cccs1
inactive: dose: 25.0 mg/kg/injection, schedule: Q04DX003 (ip), vehicle: saline 94 % of control | dose: 50.0 mg/kg/injection, schedule: Q04DX003 (ip), vehicle: saline 94 % of control | dose: 100.0 mg/kg/injection, schedule: Q04DX003 (ip), vehicle: saline 100 % of control and 94 % of control

C=CCNC(=S)NCC
inactive: [12] 100 % of control | [13] 104 % of control | [17] 109 % of control

O=C(NC(=S)Nc1cccc2c(O)cccc12)c1cccc(Br)c1
inactive: dose: 15.0 mg/kg/injection, schedule: Q01DX005 (ip), vehicle: saline with Tween-80 91 % of control | dose: 30.0 mg/kg/injection, schedule: Q01DX005 (ip), vehicle: saline with Tween-80 89 % of control | [4] 91 % of control | [6] 90 % of control and 94 % of control

C/C(=C\Cc1cc(O)c(C)cc1O)CC/C=C(\C)Cc1cc(C)co1
inactive: dose: 4.0 mg/kg/injection, schedule: Q01DX009 (ip), vehicle: Klucel (hydroxypropylcellulose) (HPC) 93 % of control | dose: 8.0 mg/kg/injection, schedule: Q01DX009 (ip), vehicle: Klucel (hydroxypropylcellulose) (HPC) 101 % of control | dose: 16.0 mg/kg/injection, schedule: Q01DX009 (ip), vehicle: Klucel (hydroxypropylcellulose) (HPC) 101 % of control | dose: 32.0 mg/kg/injection, schedule: Q01DX009 (ip), vehicle: Klucel (hydroxypropylcellulose) (HPC) 108 % of control

CCOC(=O)/N=C1\SC2(CC(C)=C(C)CS2=O)C(O)=C1C(=O)OCC (configuration not stated)
inactive: [4] 101 % of control | [5] 100 % of control | [6] 101 % of control

S=C(N/N=C/c1ccccn1)SCc1ccccc1
inactive: dose: 50.0 mg/kg/injection, schedule: Q01DX009 (ip), vehicle: Klucel (hydroxypropylcellulose) (HPC) 101 % of control | dose: 100.0 mg/kg/injection, schedule: Q01DX009 (ip), vehicle: Klucel (hydroxypropylcellulose) (HPC) 104 % of control | dose: 200.0 mg/kg/injection, schedule: Q01DX009 (ip), vehicle: Klucel (hydroxypropylcellulose) (HPC) 100 % of control
